Tests used:
mu opioid receptor = target: T1, mu opioid receptor (Rattus norvegicus, UniProt P33535); test: Rat Brain Mu Opioid Receptor Binding Assay; conditions: rat forebrain membrane preparation; [3H]DAMGO, 25° C., 2.5 h
T1 construct: Following incubation with the mu selective peptide ligand, ˜0.8 nM [^3H]DAMGO; from tissue; host or cells: rat forebrain homogenate (male Wistar rats), particulate membrane preparation

delta opioid receptor = target: T2, delta opioid receptor (Rattus norvegicus, UniProt P33533); test: Rat Brain Delta Opioid Receptor Binding Assay; conditions: rat forebrain membrane preparation; [3H]DPDPE or [3H]naltrindole, 25° C., 2.5 h
T2 construct: from tissue; host or cells: rat forebrain homogenate (male Wistar rats), particulate membrane preparation
T2 sequence (P33533 whole entry): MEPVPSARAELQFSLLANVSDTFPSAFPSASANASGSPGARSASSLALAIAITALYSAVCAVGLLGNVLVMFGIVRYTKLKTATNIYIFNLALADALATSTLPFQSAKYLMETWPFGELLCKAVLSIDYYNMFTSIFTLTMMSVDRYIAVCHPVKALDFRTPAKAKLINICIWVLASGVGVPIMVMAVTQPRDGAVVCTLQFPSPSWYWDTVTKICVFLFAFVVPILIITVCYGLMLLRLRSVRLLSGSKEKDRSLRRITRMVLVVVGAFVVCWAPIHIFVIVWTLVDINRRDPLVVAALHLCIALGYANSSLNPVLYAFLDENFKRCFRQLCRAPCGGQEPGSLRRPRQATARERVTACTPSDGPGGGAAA

T1 sequence (P33535 whole entry): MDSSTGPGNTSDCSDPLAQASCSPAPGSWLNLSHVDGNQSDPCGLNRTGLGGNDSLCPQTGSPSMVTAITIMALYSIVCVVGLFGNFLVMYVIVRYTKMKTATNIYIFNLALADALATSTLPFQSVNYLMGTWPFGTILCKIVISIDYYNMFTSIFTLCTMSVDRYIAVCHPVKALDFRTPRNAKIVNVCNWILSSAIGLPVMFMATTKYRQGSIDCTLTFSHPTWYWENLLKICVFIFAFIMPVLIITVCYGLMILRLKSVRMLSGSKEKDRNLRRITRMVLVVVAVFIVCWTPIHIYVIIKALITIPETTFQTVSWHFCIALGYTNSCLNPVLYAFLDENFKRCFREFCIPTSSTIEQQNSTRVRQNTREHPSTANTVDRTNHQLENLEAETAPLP

Compound | Ki (mu opioid receptor) [nM] | Ki (delta opioid receptor) [nM]
C=CCN1[C@@H]2CC[C@H]1CC(N1c3ccccc3Sc3cc(-c4ccccc4NC(C)=O)ccc31)C2 (mixture of isomers) [Compound 13i, N-{2-[10-(8-Allyl-8-aza-bicyclo[3.2.1]oct-3-yl)-10H-phenothiazin-3-yl]-phenyl}-acetamide] | 3740 | 552
CC(=O)Nc1ccccc1-c1ccc2c(c1)Sc1ccccc1N2C1C[C@H]2CC[C@@H](C1)N2Cc1ncc[nH]1 (mixture of isomers) [Compound 15i, N-(2-{10-[8-(1H-Imidazol-2-ylmethyl)-8-aza-bicyclo[3.2.1]oct-3-yl]-10H-phenothiazin-3-yl}-phenyl)-acetamide] | 169 | 630
CC(=O)Nc1ccccc1-c1ccc2c(c1)Sc1ccccc1N2C1C[C@H]2CC[C@@H](C1)N2Cc1ccoc1 (mixture of isomers) [Compound 7i, N-{2-[10-(8-Furan-3-ylmethyl-8-aza-bicyclo[3.2.1]oct-3-yl)-10H-phenothiazin-3-yl]-phenyl}-acetamide] | 554 | 123
Brc1ccc2c(c1)Sc1ccccc1N2C1C[C@H]2CC[C@@H](C1)N2 (mixture of isomers) [Compound 4i, 10-(8-Aza-bicyclo[3.2.1]oct-3-yl)-3-bromo-10H-phenothiazine] | 6610 | 881
CC(C)=CCN1[C@@H]2CC[C@H]1CC(N1c3ccccc3Sc3cc(-c4ccncc4)ccc31)C2 (mixture of isomers) [Compound 10i, 10-[8-(3-Methyl-but-2-enyl)-8-aza-bicyclo[3.2.1]oct-3-yl]-3-pyridin-4-yl-10H-phenothiazine] | 317 | 949
CN(CCc1ccccc1)C(=O)c1ccc2c(c1)Oc1ccccc1N2C1CC2CCC(C1)N2C (stereo not drawn) [Compound 6a, 10-(8-Methyl-8-aza-bicyclo[3.2.1]oct-3-yl)-10H-phenoxazine-3-carboxylic acid methyl-phenethyl-amide] | 819 | 575
